# Data: US8247377B2, “Non-steroidal glucocorticoid inhibitors and their use in treating inflammation, allergy and auto-immune conditions” (Glaxo Group Limited, priority 2006, dated 2012)
# Tests used:
# Format in all cases: cell-based
# NFκB = NFκB agonist assay in A549 SPAP cells; conditions: Homo sapiens; for Emax: A549, A549 SPAP cells, >85% = full agonist, ≧20% = partial or full agonist, read-out: average maximum asymptote in the NFkB assay; for IC50: A549 SPAP cells, TNFα 3.2 ng/ml, read-out: pIC50 for the NFkB assay (converted);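 as to average maximum asymptote in the NFkB assay: maximum inhibition of the TNFα-induced NFκB-driven signal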
# Summary of the method: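 A549 cells stably carrying an ELAM/NFκB-driven SPAP reporter were pre-incubated 1 h at 37° C with compound, then stimulated with TNFα (3.2 ng/ml final) for 15 h. SPAP activity read colorimetrically with pNPP at 405 nm after ~1 h; pIC50 estimated from dose-response curves.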
# MMTV promoter = test: MMTV agonist assay in A549 MMTV cells; conditions: Homo sapiens, A549, 6 h, >85% = full agonist, >20% and <85% = partial or efficacy selective agonist, read-out: average maximum asymptote in the MMTV agonist assay
# Text: Human lung carcinoma A549 cell line (ECACC No. 86012804) has been stably transfected in house with a plasmid containing a renilla luciferase reporter with an MMTV promoter. Stimulation of the cell line with GR agonists results in intracellular signal transduction and ultimately translocation of GR into the nucleus. This activates the inserted DNA sequence resulting in transcription of the integrated luciferase gene, which is quantified using a light emission. The stably transfected cell line was grown as a monolayer in DMEM supplemented with FCS-HI (10%), Non-essential amino acids (1%), L-Glutamine (2 mM), Pen/Strep (1%) and Geneticin (50 mg/ml).
# A 90% confluent T175 flask of A549 MMTV cells was harvested by centrifugation for 5 min at 200 g, resuspended in assay buffer (DMEM supplemented with 10% FCS 2×HI, 2 mM Glutamax, Non essential amino acids and 25 mM HEPES) and diluted to 0.1×10^6/ml. 70 μl of cell solution was dispensed to each well of white Nunc 384-well plates, containing compound at the required concentration. Plates were incubated for 6 h at 37° C., 95% humidity, 5% CO2. Plates were equilibrated to room temperature for 1 h prior to the addition of 10 μl of Renilla substrate to each well of assay plates. The plates were covered to protect the reagents from light, and then incubated at room temperature for approximately 15 mins before reading them on a Viewlux. Dose response curves were constructed from which pEC50 and maximum asymptote values were estimated.
# progesterone receptor = target: T1, progesterone receptor (Homo sapiens, UniProt P06401); test: Assay for progesterone receptor activity (CV-1 cells, PRb-BacMam/MMTV-BacMam); conditions: CV-1 cells transduced with PRb-BacMam and MMTV-BacMam; read-out: pEC50 progesterone receptor activity (converted)
# T1 construct: expressed in transfected cells; host or cells: CV-1 cells transduced with PRb-BacMam and MMTV-BacMam
# T1 sequence (P06401 1-933): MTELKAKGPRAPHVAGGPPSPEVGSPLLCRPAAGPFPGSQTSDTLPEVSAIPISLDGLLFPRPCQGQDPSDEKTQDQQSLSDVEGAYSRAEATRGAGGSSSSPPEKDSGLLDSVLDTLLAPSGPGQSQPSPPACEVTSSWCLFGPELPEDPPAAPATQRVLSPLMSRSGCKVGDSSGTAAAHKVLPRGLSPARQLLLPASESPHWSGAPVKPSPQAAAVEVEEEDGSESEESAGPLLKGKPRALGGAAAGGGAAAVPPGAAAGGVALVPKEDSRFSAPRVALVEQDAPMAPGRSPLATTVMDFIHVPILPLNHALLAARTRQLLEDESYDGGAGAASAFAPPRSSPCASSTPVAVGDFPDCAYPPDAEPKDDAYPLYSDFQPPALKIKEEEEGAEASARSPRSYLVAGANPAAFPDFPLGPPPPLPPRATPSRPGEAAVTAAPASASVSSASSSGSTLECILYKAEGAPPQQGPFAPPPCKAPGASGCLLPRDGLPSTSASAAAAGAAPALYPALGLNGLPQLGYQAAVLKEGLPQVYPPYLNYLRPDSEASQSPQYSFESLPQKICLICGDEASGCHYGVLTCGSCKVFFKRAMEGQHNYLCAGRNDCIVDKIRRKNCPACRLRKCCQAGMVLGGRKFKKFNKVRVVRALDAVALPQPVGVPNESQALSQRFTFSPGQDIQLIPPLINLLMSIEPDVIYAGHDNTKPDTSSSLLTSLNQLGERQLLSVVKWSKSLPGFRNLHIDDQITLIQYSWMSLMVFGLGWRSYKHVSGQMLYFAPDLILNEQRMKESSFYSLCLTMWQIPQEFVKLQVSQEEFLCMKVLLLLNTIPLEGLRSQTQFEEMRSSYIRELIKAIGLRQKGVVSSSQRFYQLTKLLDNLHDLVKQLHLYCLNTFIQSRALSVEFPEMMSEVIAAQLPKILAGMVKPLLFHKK
# Summary of the method: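 CV-1 cells co-transduced with PRb-BacMam and MMTV-BacMam (10% each), seeded onto compounds in DMEM with 10% serum. After 24 h, luminescence was read with Steadylite. pEC50 values were estimated from dose-response curves.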
smiles,measurement,setting,value
"CN(CC(O)(CNC(=O)c1cnn(-c2ccc(F)cc2)c1N)C(F)(F)F)C(=O)c1c(Cl)cccc1Cl (racemic) [Example 1 (racemic), 5-Amino-N-(2-{[[(2,6-dichlorophenyl)carbonyl](methyl)amino]methyl}-3,3,3-trifluoro-2-hydroxypropyl)-1-(4-fluorophenyl)-1H-pyrazole-4-carboxamide]",Emax,NFκB,> 85%
same,IC50,NFκB,< 1000 nM
same,Emax,MMTV promoter,> 85%
same,EC50,progesterone receptor,> 1000 nM
"CCN(CC(O)(CNC(=O)c1cnn(-c2ccc(F)cc2)c1N)C(F)(F)F)C(=O)c1c(Cl)cccc1Cl (racemic) [Example 2 (racemic), 5-Amino-N-(2-{[[(2,6-dichlorophenyl)carbonyl](ethyl)amino]methyl}-3,3,3-trifluoro-2-hydroxypropyl)-1-(4-fluorophenyl)-1H-pyrazole-4-carboxamide]",Emax,NFκB,> 85%
same,IC50,NFκB,< 1000 nM
same,Emax,MMTV promoter,> 85%
same,EC50,progesterone receptor,> 1000 nM
"Nc1c(C(=O)NCC(O)(CNC(=O)c2c(Cl)cccc2Cl)C(F)(F)F)cnn1-c1ccc(F)cc1 (racemic) [Example 3 (racemic), 5-Amino-N-[2-({[(2,6-dichlorophenyl)carbonyl]amino}methyl)-3,3,3-trifluoro-2-hydroxypropyl]-1-(4-fluorophenyl)-1H-pyrazole-4-carboxamide]",Emax,NFκB,≥ 20%
same,IC50,NFκB,< 1000 nM
same,Emax,MMTV promoter,20 to 85%
same,EC50,progesterone receptor,> 1000 nM
"CCN(CC(O)(CNC(=O)c1cnn(-c2ccc(F)cc2)c1N)C(F)(F)F)C(=O)c1c(F)cccc1Cl (racemic) [Example 4 (racemic), 5-Amino-N-(2-{[[(2-chloro-6-fluorophenyl)carbonyl](ethyl)amino]methyl}-3,3,3-trifluoro-2-hydroxypropyl)-1-(4-fluorophenyl)-1H-pyrazole-4-carboxamide]",Emax,NFκB,> 85%
same,IC50,NFκB,< 1000 nM
same,Emax,MMTV promoter,> 85%
same,EC50,progesterone receptor,> 1000 nM
"CCN(CC(O)(CNC(=O)c1cnn(-c2ccc(F)cc2)c1N)C(F)(F)F)C(=O)c1c(F)cccc1F (racemic) [Example 5 (racemic), 5-Amino-N-(2-{[[(2,6-difluorophenyl)carbonyl](ethyl)amino]methyl}-3,3,3-trifluoro-2-hydroxypropyl)-1-(4-fluorophenyl)-1H-pyrazole-4-carboxamide]",Emax,NFκB,> 85%
same,IC50,NFκB,< 1000 nM
same,Emax,MMTV promoter,> 85%
same,EC50,progesterone receptor,> 1000 nM
"Nc1c(C(=O)NCC(O)(CNC(=O)c2c(F)cccc2Cl)C(F)(F)F)cnn1-c1ccc(F)cc1 (racemic) [Example 7 (racemic), 5-Amino-N-[2-({[(2-chloro-6-fluorophenyl)carbonyl]amino}methyl)-3,3,3-trifluoro-2-hydroxypropyl]-1-(4-fluorophenyl)-1H-pyrazole-4-carboxamide]",Emax,NFκB,≥ 20%
same,IC50,NFκB,< 1000 nM
same,Emax,MMTV promoter,20 to 85%
same,EC50,progesterone receptor,> 1000 nM
"CN(CC(O)(CNC(=O)c1cnn(-c2ccc(F)cc2)c1N)C(F)(F)F)C(=O)c1c(F)cccc1F (racemic) [Example 8 (racemic), 5-Amino-N-(2-{[[(2,6-difluorophenyl)carbonyl](methyl)amino]methyl}-3,3,3-trifluoro-2-hydroxypropyl)-1-(4-fluorophenyl)-1H-pyrazole-4-carboxamide]",Emax,NFκB,> 85%
same,IC50,NFκB,< 1000 nM
same,Emax,MMTV promoter,> 85%
same,EC50,progesterone receptor,> 1000 nM
"CN(CC(O)(CNC(=O)c1cnn(-c2ccc(F)cc2)c1N)C(F)(F)F)C(=O)c1c(F)cccc1Cl (racemic) [Example 9 (racemic), 5-Amino-N-(2-{[[(2-chloro-6-fluorophenyl)carbonyl](methyl)amino]methyl}-3,3,3-trifluoro-2-hydroxypropyl)-1-(4-fluorophenyl)-1H-pyrazole-4-carboxamide]",Emax,NFκB,> 85%
same,IC50,NFκB,< 1000 nM
same,Emax,MMTV promoter,> 85%
same,EC50,progesterone receptor,> 1000 nM
"CCN(CC(O)(CNC(=O)c1cnn(-c2ccc(F)cc2)c1N)C(F)(F)F)C(=O)c1ccccc1S(C)(=O)=O (racemic) [Example 10 (racemic), 5-Amino-N-{2-[(ethyl{[2-(methylsulfonyl)phenyl]carbonyl}amino)methyl]-3,3,3-trifluoro-2-hydroxypropyl}-1-(4-fluorophenyl)-1H-pyrazole-4-carboxamide]",Emax,NFκB,> 85%
same,IC50,NFκB,< 1000 nM
same,Emax,MMTV promoter,> 85%
same,EC50,progesterone receptor,> 1000 nM
"Nc1c(C(=O)NCC(O)(CNC(=O)c2c(Br)cccc2Br)C(F)(F)F)cnn1-c1ccc(F)cc1 (racemic) [Example 11 (racemic), 5-Amino-N-[2-({[(2,6-dibromophenyl)carbonyl]amino}methyl)-3,3,3-trifluoro-2-hydroxypropyl]-1-(4-fluorophenyl)-1H-pyrazole-4-carboxamide]",Emax,NFκB,≥ 20%
same,IC50,NFκB,< 1000 nM
same,Emax,MMTV promoter,20 to 85%
same,EC50,progesterone receptor,> 1000 nM
"Nc1c(C(=O)NCC(O)(CNC(=O)c2c(Cl)cccc2Br)C(F)(F)F)cnn1-c1ccc(F)cc1 (racemic) [Example 12 (racemic), 5-Amino-N-[2-({[(2-bromo-6-chlorophenyl)carbonyl]amino}methyl)-3,3,3-trifluoro-2-hydroxypropyl]-1-(4-fluorophenyl)-1H-pyrazole-4-carboxamide]",Emax,NFκB,≥ 20%
same,IC50,NFκB,< 1000 nM
same,Emax,MMTV promoter,20 to 85%
same,EC50,progesterone receptor,> 1000 nM
"Nc1c(C(=O)NCC(O)(CNC(=O)c2c(F)cccc2Br)C(F)(F)F)cnn1-c1ccc(F)cc1 (racemic) [Example 13 (racemic), 5-Amino-N-[2-({[(2-bromo-6-fluorophenyl)carbonyl]amino}methyl)-3,3,3-trifluoro-2-hydroxypropyl]-1-(4-fluorophenyl)-1H-pyrazole-4-carboxamide]",Emax,NFκB,≥ 20%
same,IC50,NFκB,< 1000 nM
same,Emax,MMTV promoter,20 to 85%
same,EC50,progesterone receptor,> 1000 nM
"Nc1c(C(=O)NCC(O)(CNC(=O)c2c(Cl)cccc2OC(F)F)C(F)(F)F)cnn1-c1ccc(F)cc1 (racemic) [Example 14 (racemic), 5-Amino-N-(2-{[({2-chloro-6-[(difluoromethyl)oxy]phenyl}carbonyl)amino]methyl}-3,3,3-trifluoro-2-hydroxypropyl)-1-(4-fluorophenyl)-1H-pyrazole-4-carboxamide]",Emax,NFκB,≥ 20%
same,IC50,NFκB,< 1000 nM
same,Emax,MMTV promoter,20 to 85%
same,EC50,progesterone receptor,> 1000 nM
"Nc1c(C(=O)NCC(O)(CNC(=O)c2c(C(F)(F)F)cccc2C(F)(F)F)C(F)(F)F)cnn1-c1ccc(F)cc1 (racemic) [Example 15 (racemic), 5-amino-N-{2-[({[2,6-bis(trifluoromethyl)phenyl]carbonyl}amino)methyl]-3,3,3-trifluoro-2-hydroxypropyl}-1-(4-fluorophenyl)-1H-pyrazole-4-carboxamide]",Emax,NFκB,≥ 20%
same,IC50,NFκB,< 1000 nM
same,Emax,MMTV promoter,20 to 85%
same,EC50,progesterone receptor,> 1000 nM
